Laboratory results published in patent US20230123334A1, “AMINO LIPID COMPOUND, PREPARATION METHOD THEREFOR, AND APPLICATION THEREOF” (SHENZHEN SHENXIN BIOTECHNOLOGY CO., LTD., priority 2020, published 2023).

Assays:
Type in all cases: cell-based
Hela cells [1] = experiment: Transfection of Hela cell line, mRNA vectors; conditions: 50 ng EGFP mRNA per well
Method in brief: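 Transfection efficiency was scored as GFP-fluorescent cells over Hoechst-stained total nuclei, with Lipofectamine2000 as reference reagent. Each well of HeLa cells, grown in DMEM plus 10% FBS, received 50 ng EGFP mRNA.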

cardiomyocytes [2] = experiment: Screening as mRNA vectors in cardiomyocytes; conditions: 50 ng EGFP mRNA per well
Procedure: Cell line: cardiomyocytes (obtained from induced differentiation of hESC according to reported methods: J Mol. Cell. Cardiol. 2011, 51, 288-298)
(§1) Medium: DMEM supplemented with 10% fetal bovine serum (Invitrogen)
(§2) Mode of screening: cell transfection on 96-well plates
(§3) Detection (readout): percentage of the number of GFP fluorescent cells relative to the total number of cells (the total number of cells was determined using nucleus dye Hoechst). Lipofectamine Stem (Invitrogen) was used as the positive control, according to the manufacturer's instructions.
Method: the experimental method was basically the same with Example 4, and the mass of EGFP mRNA for transfection was 50 ng per well.

[3] = tested on: embryonic stem cells (hESC2); experiment: Screening as DNA vectors in embryonic stem cells, flow cytometry; conditions: 75 ng plasmid DNA, 48 hours after transfection, flow cytometer
Source text: (§4) Cell line: embryonic stem cells (hESC2, cultured according to reported methods: Stem Cells, 2005, 23, 544-549)
(§5) Medium: mTeSR1 (STEMCELL)
as §2
(§6) Detection (readout): percentage of the number of GFP fluorescent cells relative to the total number of cells. Lipofectamine Stem was used as the positive control.
Method: an 8-channel pipette was used for sample addition. The contents shown were for a single well of a 96-well flat plate.
1. Stem cells were cultured to 3-5×10^4 cells per well in a 96-well plate treated with matrigel.
2. The compound (0.01 mmol) prepared in Example 1 was dissolved in 1 mL of anhydrous ethanol. After ultrasonically dissolved, 10 μL of the resultant amino lipid solution in ethanol was taken and mixed with 5 μL of DOPE solution in ethanol ([…]). The obtained mixture was then added with 35 μL of 0.2 M sodium acetate buffer (pH 5.6), and vortexed at a constant rotating speed for 30 s. Then, 4 μL was taken from the obtained product and added to 46 μL of 0.02 M sodium acetate buffer (pH 5.6), and vortexed at a constant rotating speed for 30 s to form a liposome solution. 5 μL of this liposome solution was mixed with 75 ng of plasmid DNA (pSin-EGFP-IRES-Puro) dissolved in 5 μL of 0.02 M sodium acetate buffer, and allowed to stay at room temperature for 30 min to form a lipid/DNA transfection complex.
3. 10 μL of the lipid/DNA transfection complex was incubated at room temperature for 30 min, followed by addition of 90 μL mTeSR1 medium was added and mixing with a pipette. 100 μL of the mixture was added to separate wells of a 96-well culture plate and placed in an incubator containing 5% CO2 at 37° C.
4. 48 hours after transfection, the cells were digested with 0.05% Trypsin-EDTA. The cells were resuspended in a PBS buffer and filtered. The cell suspension was placed in a flow cytometer and the number of GFP-expressing cells in no less than 2000 cells was measured so as to obtain the absolute efficiency of cell transfection. The relative efficiency of cell transfection was obtained by comparing the cell transfection efficiency with the positive control Lipofectamine Stem.

cardiomyocytes [4] = experiment: Screening as DNA vectors in cardiomyocytes; design: concentration or dose not given beside the values; conditions: method as Example 4
Procedure: Cell line: cardiomyocytes (obtained from induced differentiation of hESC according to reported methods: J. Mol. Cell. Cardiol. 2011, 51, 288-298)
as §1, §2, §3
Method: the experimental method was basically the same with Example 4.

MCF7 cells [5] = experiment: Transfection of MCF7 cell line, DNA vectors; design: concentration or dose not given beside the values; conditions: plasmid DNA, GFP cells / total cells
Method in brief: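 Read-out: GFP-positive cells as % of all Hoechst-stained nuclei after 96-well transfection of MCF7 cells grown in serum-supplemented DMEM. Positive control was Lipofectamine2000, used per manufacturer's protocol.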

MCF7 cells [6] = experiment: Transfection of MCF7 cell line, mRNA vectors; conditions: 50 ng EGFP mRNA per well
Method in brief: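 Efficiency was scored as the fraction of GFP-fluorescent cells over all Hoechst-counted cells after delivery of 50 ng EGFP mRNA per well. Cells were MCF7 grown in serum-supplemented DMEM, and Lipofectamine2000 served as reference.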

Hela cells [7] = experiment: Transfection of Hela cell line, DNA vectors; conditions: 75 ng plasmid DNA, GFP cells / total cells
Method in brief: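 Amino lipid/DOPE liposomes in sodium acetate pH 5.6 were complexed with 75 ng psin-EGFP-IRES-Puro plasmid for 30 min at room temperature, then mixed with 3-5×10^4 Hela cells in DMEM/10% FBS at 37° C. Hoechst stain after 20-24 h, imaging after a further 20-24 h. Efficiency = GFP-positive cells / total nuclei.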

[8] = tested on: embryonic stem cells (hESC2); experiment: Screening as mRNA vectors in embryonic stem cells; conditions: 50 ng EGFP mRNA per well
Procedure: as §4, §5
Mode of screening: cell transfection on 96-well plate
as §6
Method: the experimental method was basically the same with Example 10, and the mass of EGFP mRNA for transfection was 50 ng per well.

Row | Structure (SMILES) | Absolute mRNA transfection efficiency in Hela cells (Hela cells [1]) [%] | Absolute mRNA transfection efficiency in cardiomyocytes (cardiomyocytes [2]) [%] | Absolute DNA transfection efficiency in embryonic stem cells [3] [%] | Absolute DNA transfection efficiency in cardiomyocytes (cardiomyocytes [4]) [%] | Absolute DNA transfection efficiency in MCF7 cells (MCF7 cells [5]) [%] | Absolute mRNA transfection efficiency in MCF7 cells (MCF7 cells [6]) [%] | Absolute DNA transfection efficiency in Hela cells (Hela cells [7]) [%] | Absolute mRNA transfection efficiency in embryonic stem cells [8] [%]
1 | CCCCCCCCCCCCSc1nc(NCC2CCN(C)CC2)nc(SCCCCCCCC)n1 [Compound S8S12D10] | 11.7 | 25.6 | 2.6 | 1.0 | 37.7 | 50.2 | 11.7 | 24.6
2 | CCCCCCCCCCCCSc1nc(NCCCN2CCOCC2)nc(SCCCCCCCC)n1 [Compound S8S12D8] | 17.2 | 0.7 | 5.9 | 1.9 | 37.7 | 14.0 | 17.2 | 0.7
3 | CCCCCCCCCCCSc1nc(NCCCCCCCC)nc(NCCCN2CCN(C)CC2)n1 [Compound S11N8D9] | 11.9 | 25.8 | 3.6 | 0.1 | 20.9 | 42.3 | 11.7 | 34.8
4 | CCCCCCCCCCCSc1nc(NCCCCCCCCC)nc(NCCN2CCN(C)CC2)n1 [Compound S11N9D5] | 10.6 | 30.7 | 0.5 | 19.7 | 23.1 | 17.8 | 10.6 | 24.9
5 | CCCCCCCCCCCSc1nc(NCCCCCCCC)nc(NCCN2CCN(C)CC2)n1 [Compound S11N8D5] | 9.6 | 32.2 | 4.0 | 9.1 | 20.1 | 21.2 | 9.6 | 6.9
6 | CCCCCCCCCCCCNc1nc(NCCCN2CCOCC2)nc(SCCCCCCCCC)n1 [Compound S9N12D8] | 6.8 | 2.1 | 1.1 | 1.5 | 6.2 | 0.7 | 6.8 | 11.1
7 | CCCCCCCCCCCCSc1nc(NCCN2CCN(C)CC2)nc(SCCCCCCCC)n1 [Compound S8S12D5] | 12.4 | 2.5 | 1.7 | 2.4 | 26.3 | 32.6 | 12.4 | 24.9
8 | CCCCCCCCCCCSc1nc(NCCCCCCCC)nc(NCC2CCN(C)CC2)n1 [Compound S11N8D10] | 16.7 | 41.7 | 12.6 | 6.6 | 25.6 | 38.9 | 16.7 | 35.4
9 | CCCCCCCCCCCCSc1nc(NCCCN(C)C)nc(SCCCCCCCC)n1 [Compound S8S12D6] | 6.3 | 44.9 | 3.3 | 1.6 | 34.4 | 50.0 | 6.3 | 7.1
10 | CCCCCCCCCCCSc1nc(NCCCN(C)C)nc(SCCCCCCCC)n1 [Compound S8S11D6] | 3.9 | 18.4 | 1.6 | 1.0 | 56.8 | 46.3 | 3.9 | 10.3
11 | CCCCCCCCCCCCNc1nc(NCCCN(C)C)nc(SCCCCCCCCC)n1 [Compound S9N12D6] | 35.5 | 5.3 | 1.9 | 1.7 | 21.8 | 22.4 | 35.5 | 6.1
12 | CCCCCCCCCCCSc1nc(NCCN2CCN(C)CC2)nc(SCCCCCCCC)n1 [Compound S8S11D5] | 5.9 | 2.7 | 2.4 | 0.5 | 48.3 | 30.6 | 5.9 | 21.1
13 | CCCCCCCCCCCNc1nc(NCCCN2CCN(C)CC2)nc(SCCCCCCCC)n1 [Compound S8N11D9] | 31.9 | 31.6 | 0.5 | 0.6 | 45.4 | 6.6 | 31.9 | 1.0
14 | CCCCCCCCCCCCNc1nc(NCCCN2CCN(C)CC2)nc(SCCCCCCCCC)n1 [Compound S9N12D9] | 14.4 | 32.0 | 2.7 | 0.0 | 20.0 | 16.4 | 14.4 | 7.6
